Assay results reported in ChEMBL document CHEMBL6078681, “Discovery and Optimization of Dihydroquinolin-2(1H)-ones as Novel Highly Selective and Orally Bioavailable Phosphodiesterase 5 Inhibitors for the Treatment of Pulmonary Arterial Hypertension” (J Med Chem, 2024).
Blank lines part the entries; values can stand above or below the compound they belong to. Activity calls are given as the source filed them. No cut-off for these calls is given here.

Legend:
[1] = biological target: High affinity cGMP-specific 3',5'-cyclic phosphodiesterase 9A (Homo sapiens, UniProt O76083); test: Inhibition of PDE9A2 (unknown origin) using […] as substrate incubated for 1 hr by fluorescence polarization assay
[2] = Apparent volume of distribution in Sprague-Dawley rat at 2 mg/kg, iv measured for 5 to 1440 mins by LC-MS/MS analysis; type: ADME, organism-based; details: in vivo, time 5-1440 min, read-out: Vz
[3] = Tmax in Sprague-Dawley rat at 2 mg/kg, iv measured for 5 to 1440 mins by LC-MS/MS analysis; type: ADME, organism-based; details: in vivo, time 5-1440 min
[4] = biological target: High affinity 3',5'-cyclic-AMP phosphodiesterase 7A (Homo sapiens, UniProt Q13946); test: Inhibition of PDE7A (unknown origin) using FAM-cAMP as substrate incubated for 1 hr by fluorescence polarization assay
[5] = biological target: cAMP and cAMP-inhibited cGMP 3',5'-cyclic phosphodiesterase 10A (Homo sapiens, UniProt Q9Y233); test: Inhibition of PDE10A2 (unknown origin) using FAM-cAMP as substrate incubated for 1 hr by fluorescence polarization assay
[6] = biological target: Cone cGMP-specific 3',5'-cyclic phosphodiesterase subunit alpha' (Homo sapiens, UniProt P51160); test: Inhibition of PDE6C (unknown origin) using […] as substrate incubated for 1 hr by fluorescence polarization assay
[7] = biological target: High affinity cAMP-specific and IBMX-insensitive 3',5'-cyclic phosphodiesterase 8A (Homo sapiens, UniProt O60658); test: Inhibition of PDE8A1 (unknown origin) using FAM-cAMP as substrate incubated for 1 hr by fluorescence polarization assay
[8] = Half life in Sprague-Dawley rat at 2 mg/kg, iv measured for 5 to 1440 mins by LC-MS/MS analysis; type: ADME, organism-based; details: in vivo, time 5-1440 min
[9] = Cmax in Sprague-Dawley rat at 2 mg/kg, iv measured for 5 to 1440 mins by LC-MS/MS analysis; type: ADME, organism-based; details: in vivo, time 5-1440 min
[10] = biological target: Dual specificity calcium/calmodulin-dependent 3',5'-cyclic nucleotide phosphodiesterase 1C (Homo sapiens, UniProt Q14123); test: Inhibition of PDE1C (unknown origin) using FAM-cAMP as substrate incubated for 1 hr by fluorescence polarization assay
[11] = Tmax in Sprague-Dawley rat at 10 mg/kg, po measured for 5 to 1440 mins by LC-MS/MS analysis; type: ADME, organism-based; details: in vivo, time 5-1440 min
[12] = biological target: Dual 3',5'-cyclic-AMP and -GMP phosphodiesterase 11A (Homo sapiens, UniProt Q9HCR9); test: Inhibition of PDE11A (unknown origin) using FAM-cAMP as substrate incubated for 1 hr by fluorescence polarization assay
[13] = Clearance in Sprague-Dawley rat at 2 mg/kg, iv measured for 5 to 1440 mins by LC-MS/MS analysis; type: ADME, organism-based; details: in vivo, time 5-1440 min
[14] = Volume of distribution in Sprague-Dawley rat at 10 mg/kg, po measured for 5 to 1440 mins by LC-MS/MS analysis; type: ADME, organism-based; details: in vivo, time 5-1440 min
[15] = Toxicity in mono-crotaline-treated Sprague-Dawley rat model of Pulmonary arterial hypertension assessed as body weight change at 2.5 to 5 mg/kg for 21 days; type: organism-based; details: in vivo, 504 h, dose 2.5-5 mg/kg, time 21 day
Cytochrome P450 2C19 = Cytochrome P450 2C19 (Homo sapiens, UniProt P33261); test: Inhibition of CYP2C19 (unknown origin); type: ADME
[16] = AUC (0 to t) in Sprague-Dawley rat at 2 mg/kg, iv measured for 5 to 1440 mins by LC-MS/MS analysis; type: ADME, organism-based; details: in vivo, time 5-1440 min
[17] = AUC (0 to t) in Sprague-Dawley rat at 10 mg/kg, po measured for 5 to 1440 mins by LC-MS/MS analysis; type: ADME, organism-based; details: in vivo, time 5-1440 min
[18] = Acute toxicity in mouse assessed as drug tolerance at >1.5 g/kg, po; details: in vivo, 1500 mg/kg
[19] = MRT (0 to infinity) in Sprague-Dawley rat at 2 mg/kg, iv measured for 5 to 1440 mins by LC-MS/MS analysis; type: ADME, organism-based; details: in vivo, time 5-1440 min
[20] = Cmax in Sprague-Dawley rat at 10 mg/kg, po measured for 5 to 1440 mins by LC-MS/MS analysis; type: ADME, organism-based; details: in vivo, time 5-1440 min
Cytochrome P450 3A4 = Cytochrome P450 3A4 (Homo sapiens, UniProt P08684); test: Inhibition of CYP3A4 (unknown origin); type: ADME
[21] = biological target: cGMP-dependent 3',5'-cyclic phosphodiesterase (Homo sapiens, UniProt O00408); test: Inhibition of PDE2A (unknown origin) using FAM-cAMP as substrate incubated for 1 hr by fluorescence polarization assay
[22] = MRT (0 to t) in Sprague-Dawley rat at 2 mg/kg, iv measured for 5 to 1440 mins by LC-MS/MS analysis; type: ADME, organism-based; details: in vivo, time 5-1440 min
[23] = AUC (0 to infinity) in Sprague-Dawley rat at 2 mg/kg, iv measured for 5 to 1440 mins by LC-MS/MS analysis; type: ADME, organism-based; details: in vivo, time 5-1440 min
[24] = biological target: Voltage-gated inwardly rectifying potassium channel KCNH2 (Homo sapiens, UniProt Q12809); test: Inhibition of hERG; type: toxicity
Rattus norvegicus [25] = test: Anti-Pulmonary arterial hypertension in mono-crotaline-treated Sprague-Dawley rat model assessed as decrease in RVHI level at 2.5 to 5 mg/kg for 21 days; type: functional, organism-based; details: dose 2.5-5 mg/kg, time 21.0 day
Rattus norvegicus [26] = test: Anti-Pulmonary arterial hypertension in mono-crotaline-treated Sprague-Dawley rat model assessed as decrease in mPAP level at 2.5 mg/kg for 21 days; type: functional, organism-based; details: time 21.0 day
[27] = MRT (0 to infinity) in Sprague-Dawley rat at 10 mg/kg, po measured for 5 to 1440 mins by LC-MS/MS analysis; type: ADME, organism-based; details: in vivo, time 5-1440 min
[28] = biological target: T1, cGMP-specific 3',5'-cyclic phosphodiesterase (Homo sapiens, UniProt O76074); test: Inhibition of PDE5A (unknown origin) using […] as substrate incubated for 1 hr by fluorescence polarization assay
[29] = Clearance in Sprague-Dawley rat at 10 mg/kg, po measured for 5 to 1440 mins by LC-MS/MS analysis; type: ADME, organism-based; details: in vivo, time 5-1440 min
[30] = Oral bioavailability in Sprague-Dawley rat at 10 mg/kg measured for 5 to 1440 mins by LC-MS/MS analysis; type: ADME, organism-based; details: in vivo, time 5-1440 min
[31] = Half life in Sprague-Dawley rat at 10 mg/kg, po measured for 5 to 1440 mins by LC-MS/MS analysis; type: ADME, organism-based; details: in vivo, time 5-1440 min
[32] = biological target: cGMP-inhibited 3',5'-cyclic phosphodiesterase 3A (Homo sapiens, UniProt Q14432); test: Inhibition of PDE3A (unknown origin) using FAM-cAMP as substrate incubated for 1 hr by fluorescence polarization assay
Rattus norvegicus [33] = test: Anti-Pulmonary arterial hypertension in mono-crotaline-treated Sprague-Dawley rat model assessed as decrease in pulmonary arteriole wall thickness at 2.5 to 5 mg/kg for 21 days by H and E staining based analysis; type: functional, organism-based; details: dose 2.5-5 mg/kg, time 21.0 day
[34] = MRT (0 to t) in Sprague-Dawley rat at 10 mg/kg, po measured for 5 to 1440 mins by LC-MS/MS analysis; type: ADME, organism-based; details: in vivo, time 5-1440 min
Cytochrome P450 2D6 = Cytochrome P450 2D6 (Homo sapiens, UniProt P10635); test: Inhibition of CYP2D6 (unknown origin); type: ADME
Cytochrome P450 1A2 = biological target: T2, Cytochrome P450 1A2 (Homo sapiens, UniProt P05177); test: Inhibition of CYP1A2 (unknown origin); type: ADME
T2 sequence (P05177 whole entry): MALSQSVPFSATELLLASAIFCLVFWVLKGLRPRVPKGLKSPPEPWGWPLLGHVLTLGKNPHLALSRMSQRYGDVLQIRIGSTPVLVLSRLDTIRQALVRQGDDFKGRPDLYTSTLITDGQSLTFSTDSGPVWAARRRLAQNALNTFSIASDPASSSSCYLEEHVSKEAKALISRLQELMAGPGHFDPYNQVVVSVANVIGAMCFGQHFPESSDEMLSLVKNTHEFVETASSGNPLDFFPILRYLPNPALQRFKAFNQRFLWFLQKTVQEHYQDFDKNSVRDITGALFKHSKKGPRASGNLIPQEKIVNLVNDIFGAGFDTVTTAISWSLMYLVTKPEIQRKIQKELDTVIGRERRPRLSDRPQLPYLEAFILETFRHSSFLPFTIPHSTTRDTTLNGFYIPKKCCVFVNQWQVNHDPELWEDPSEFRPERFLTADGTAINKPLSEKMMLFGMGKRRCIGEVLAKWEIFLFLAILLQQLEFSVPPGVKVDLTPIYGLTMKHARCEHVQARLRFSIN

Cytochrome P450 2C9 = Cytochrome P450 2C9 (Homo sapiens, UniProt P11712); test: Inhibition of CYP2C9 (unknown origin); type: ADME
[35] = AUC (0 to infinity) in Sprague-Dawley rat at 10 mg/kg, po measured for 5 to 1440 mins by LC-MS/MS analysis; type: ADME, organism-based; details: in vivo, time 5-1440 min
[36] = biological target: 3',5'-cyclic-AMP phosphodiesterase 4D (Homo sapiens, UniProt Q08499); test: Inhibition of PDE4D2 (unknown origin) using FAM-cAMP as substrate incubated for 1 hr by fluorescence polarization assay
Rattus norvegicus [37] = test: Anti-Pulmonary arterial hypertension in mono-crotaline-treated Sprague-Dawley rat model assessed as decrease in mPAP level at 5 mg/kg for 21 days; type: functional, organism-based; details: time 21.0 day
[38] = Half life in rat liver microsomes; type: ADME, Microsome
[39] = biological target: T1, cGMP-specific 3',5'-cyclic phosphodiesterase; test: Inhibition of PDE5A (unknown origin) using […] as substrate at 100 nM incubated for 1 hr by fluorescence polarization assay relative to control

Sequence of High affinity 3',5'-cyclic-AMP phosphodiesterase 7A (Q13946 whole entry): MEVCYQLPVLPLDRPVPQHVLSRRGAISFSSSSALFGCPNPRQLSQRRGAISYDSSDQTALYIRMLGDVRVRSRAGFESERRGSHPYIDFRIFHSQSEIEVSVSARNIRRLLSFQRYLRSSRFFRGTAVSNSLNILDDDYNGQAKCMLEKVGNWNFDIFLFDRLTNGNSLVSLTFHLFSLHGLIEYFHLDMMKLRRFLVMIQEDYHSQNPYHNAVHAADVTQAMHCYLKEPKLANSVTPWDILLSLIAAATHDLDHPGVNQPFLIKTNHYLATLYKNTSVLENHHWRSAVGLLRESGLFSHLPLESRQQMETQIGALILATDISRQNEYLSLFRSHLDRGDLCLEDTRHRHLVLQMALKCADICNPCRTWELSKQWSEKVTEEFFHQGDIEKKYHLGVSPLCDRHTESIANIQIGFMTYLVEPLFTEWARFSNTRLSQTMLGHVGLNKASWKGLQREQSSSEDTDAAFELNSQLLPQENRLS
Sequence of Dual 3',5'-cyclic-AMP and -GMP phosphodiesterase 11A (Q9HCR9 whole entry): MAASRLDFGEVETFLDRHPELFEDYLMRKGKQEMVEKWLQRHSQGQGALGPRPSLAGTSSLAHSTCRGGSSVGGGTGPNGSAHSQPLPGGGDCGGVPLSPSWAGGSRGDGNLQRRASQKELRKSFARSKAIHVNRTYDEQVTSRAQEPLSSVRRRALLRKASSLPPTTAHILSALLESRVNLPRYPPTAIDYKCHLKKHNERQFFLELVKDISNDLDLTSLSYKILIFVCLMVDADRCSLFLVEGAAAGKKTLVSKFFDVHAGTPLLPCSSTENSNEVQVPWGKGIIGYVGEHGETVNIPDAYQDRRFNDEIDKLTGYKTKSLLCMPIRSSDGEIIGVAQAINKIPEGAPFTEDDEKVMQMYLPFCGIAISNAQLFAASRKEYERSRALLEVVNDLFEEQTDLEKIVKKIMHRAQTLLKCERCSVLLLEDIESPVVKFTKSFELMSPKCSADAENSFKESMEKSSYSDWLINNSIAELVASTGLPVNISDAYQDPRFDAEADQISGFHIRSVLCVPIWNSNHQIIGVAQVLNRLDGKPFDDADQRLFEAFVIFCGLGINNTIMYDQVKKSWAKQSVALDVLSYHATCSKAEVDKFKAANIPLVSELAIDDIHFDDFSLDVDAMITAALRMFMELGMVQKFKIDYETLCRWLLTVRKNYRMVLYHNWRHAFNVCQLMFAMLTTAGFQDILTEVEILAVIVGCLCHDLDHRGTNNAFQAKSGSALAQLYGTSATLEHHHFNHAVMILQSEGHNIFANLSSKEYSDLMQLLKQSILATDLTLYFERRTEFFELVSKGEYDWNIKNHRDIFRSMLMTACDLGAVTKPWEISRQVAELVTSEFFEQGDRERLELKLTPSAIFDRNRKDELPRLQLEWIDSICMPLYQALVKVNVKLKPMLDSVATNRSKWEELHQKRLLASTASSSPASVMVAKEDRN
Sequence of cAMP and cAMP-inhibited cGMP 3',5'-cyclic phosphodiesterase 10A (Q9Y233 whole entry): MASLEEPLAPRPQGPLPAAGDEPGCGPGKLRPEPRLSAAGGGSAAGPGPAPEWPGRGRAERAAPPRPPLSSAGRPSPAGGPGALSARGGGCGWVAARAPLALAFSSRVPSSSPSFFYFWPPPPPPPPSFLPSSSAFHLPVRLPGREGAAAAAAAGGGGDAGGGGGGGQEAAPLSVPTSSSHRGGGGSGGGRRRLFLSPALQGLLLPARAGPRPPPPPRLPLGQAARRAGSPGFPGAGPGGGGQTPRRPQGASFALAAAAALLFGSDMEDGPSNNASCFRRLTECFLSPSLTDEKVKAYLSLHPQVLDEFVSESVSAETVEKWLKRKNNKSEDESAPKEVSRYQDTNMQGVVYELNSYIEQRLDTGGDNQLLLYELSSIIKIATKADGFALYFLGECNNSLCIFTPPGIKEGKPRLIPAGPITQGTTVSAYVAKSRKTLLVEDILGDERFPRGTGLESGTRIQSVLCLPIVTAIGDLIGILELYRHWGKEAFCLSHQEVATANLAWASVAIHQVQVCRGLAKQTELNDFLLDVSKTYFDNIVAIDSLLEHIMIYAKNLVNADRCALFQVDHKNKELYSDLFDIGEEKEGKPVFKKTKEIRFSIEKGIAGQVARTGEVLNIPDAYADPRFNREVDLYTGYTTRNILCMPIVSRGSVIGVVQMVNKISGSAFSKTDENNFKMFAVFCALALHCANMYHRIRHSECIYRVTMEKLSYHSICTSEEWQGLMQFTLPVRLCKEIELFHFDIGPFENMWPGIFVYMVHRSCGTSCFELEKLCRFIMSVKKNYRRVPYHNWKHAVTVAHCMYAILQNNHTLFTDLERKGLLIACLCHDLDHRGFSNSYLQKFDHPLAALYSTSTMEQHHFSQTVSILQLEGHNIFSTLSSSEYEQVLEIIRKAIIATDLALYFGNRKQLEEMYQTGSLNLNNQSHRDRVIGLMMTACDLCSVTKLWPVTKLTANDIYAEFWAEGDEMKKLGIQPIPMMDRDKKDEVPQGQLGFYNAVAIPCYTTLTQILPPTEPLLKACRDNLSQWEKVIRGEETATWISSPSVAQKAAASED
Sequence of cGMP-inhibited 3',5'-cyclic phosphodiesterase 3A (Q14432 whole entry): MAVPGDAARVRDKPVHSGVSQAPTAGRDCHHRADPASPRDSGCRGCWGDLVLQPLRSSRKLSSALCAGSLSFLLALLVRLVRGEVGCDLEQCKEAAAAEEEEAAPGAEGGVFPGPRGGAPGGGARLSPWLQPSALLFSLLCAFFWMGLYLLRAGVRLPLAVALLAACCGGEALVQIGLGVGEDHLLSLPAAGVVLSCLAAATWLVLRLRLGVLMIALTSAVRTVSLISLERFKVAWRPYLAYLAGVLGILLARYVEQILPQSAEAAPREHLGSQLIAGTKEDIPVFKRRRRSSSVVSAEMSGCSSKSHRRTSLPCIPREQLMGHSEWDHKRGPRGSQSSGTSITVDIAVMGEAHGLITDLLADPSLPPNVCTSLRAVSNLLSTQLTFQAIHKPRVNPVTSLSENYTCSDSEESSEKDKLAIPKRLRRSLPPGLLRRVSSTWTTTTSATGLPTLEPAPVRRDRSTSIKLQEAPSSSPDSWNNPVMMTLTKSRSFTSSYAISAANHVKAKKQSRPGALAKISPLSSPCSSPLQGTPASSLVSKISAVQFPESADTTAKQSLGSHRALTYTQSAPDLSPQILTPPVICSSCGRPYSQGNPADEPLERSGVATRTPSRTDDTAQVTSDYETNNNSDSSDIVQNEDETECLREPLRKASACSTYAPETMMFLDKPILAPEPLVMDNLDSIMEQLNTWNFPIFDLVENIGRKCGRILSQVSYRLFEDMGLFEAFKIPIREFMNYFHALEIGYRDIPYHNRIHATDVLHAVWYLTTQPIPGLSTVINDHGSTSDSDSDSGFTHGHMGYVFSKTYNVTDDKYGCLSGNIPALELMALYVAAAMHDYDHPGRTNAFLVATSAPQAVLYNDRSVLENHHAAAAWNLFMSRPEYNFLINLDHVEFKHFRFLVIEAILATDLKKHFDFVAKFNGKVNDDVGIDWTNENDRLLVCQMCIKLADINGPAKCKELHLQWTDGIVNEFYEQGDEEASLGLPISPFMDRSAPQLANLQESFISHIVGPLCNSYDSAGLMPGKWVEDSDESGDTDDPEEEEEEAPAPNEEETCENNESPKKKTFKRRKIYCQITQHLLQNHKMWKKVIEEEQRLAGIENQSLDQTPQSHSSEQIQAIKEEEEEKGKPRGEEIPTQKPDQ
Sequence of 3',5'-cyclic-AMP phosphodiesterase 4D (Q08499 whole entry): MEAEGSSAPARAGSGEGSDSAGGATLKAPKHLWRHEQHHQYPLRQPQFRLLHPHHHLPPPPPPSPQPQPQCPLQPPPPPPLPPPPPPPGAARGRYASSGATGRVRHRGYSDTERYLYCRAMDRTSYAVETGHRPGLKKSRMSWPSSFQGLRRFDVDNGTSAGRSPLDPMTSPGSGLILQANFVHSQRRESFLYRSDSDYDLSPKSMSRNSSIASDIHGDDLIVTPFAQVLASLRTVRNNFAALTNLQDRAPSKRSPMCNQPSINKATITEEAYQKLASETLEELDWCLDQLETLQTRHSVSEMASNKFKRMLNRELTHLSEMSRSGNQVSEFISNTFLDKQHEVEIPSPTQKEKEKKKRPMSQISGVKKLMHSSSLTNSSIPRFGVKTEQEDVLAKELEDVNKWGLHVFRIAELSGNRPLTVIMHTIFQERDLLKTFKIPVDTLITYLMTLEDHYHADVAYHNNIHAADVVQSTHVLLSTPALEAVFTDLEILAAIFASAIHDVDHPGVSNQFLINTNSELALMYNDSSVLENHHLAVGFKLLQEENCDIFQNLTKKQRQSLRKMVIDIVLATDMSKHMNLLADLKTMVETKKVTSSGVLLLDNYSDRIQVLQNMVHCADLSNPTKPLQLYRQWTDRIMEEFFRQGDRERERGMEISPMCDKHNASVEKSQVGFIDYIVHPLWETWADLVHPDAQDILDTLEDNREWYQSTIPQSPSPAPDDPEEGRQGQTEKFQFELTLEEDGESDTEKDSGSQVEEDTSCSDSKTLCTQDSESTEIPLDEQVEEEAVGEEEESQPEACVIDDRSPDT
Sequence of Cytochrome P450 2C9 (P11712 whole entry): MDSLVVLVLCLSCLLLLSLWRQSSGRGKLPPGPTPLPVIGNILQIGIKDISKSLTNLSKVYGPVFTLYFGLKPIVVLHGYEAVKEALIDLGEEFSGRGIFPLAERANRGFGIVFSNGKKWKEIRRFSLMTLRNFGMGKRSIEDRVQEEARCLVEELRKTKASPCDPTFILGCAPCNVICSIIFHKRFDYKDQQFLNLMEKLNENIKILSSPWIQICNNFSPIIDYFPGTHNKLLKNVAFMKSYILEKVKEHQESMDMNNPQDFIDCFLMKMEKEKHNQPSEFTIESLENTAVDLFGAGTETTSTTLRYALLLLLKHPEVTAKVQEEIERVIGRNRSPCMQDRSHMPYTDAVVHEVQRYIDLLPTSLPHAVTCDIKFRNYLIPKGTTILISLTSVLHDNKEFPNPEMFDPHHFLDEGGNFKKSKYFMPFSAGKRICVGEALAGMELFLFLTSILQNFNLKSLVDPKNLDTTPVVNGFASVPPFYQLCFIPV

SMILES: COc1ccc(-c2c(C#N)c(=O)n(Cc3ccccc3)c3c(N[C@H](C)c4ccccn4)cccc23)cc1
- IC50 [1]: > 100 µM
- Vd [2]: 16.3 L/kg
- Tmax [3]: 4.98 min
- IC50 [4]: 25.7 µM
- IC50 [5]: 21.2 µM
- IC50 [6]: 0.02 µM
- IC50 [7]: > 100 µM
- half-life [8]: 2.25 h
- Cmax [9]: 985 ng/mL
- IC50 [10]: 10.5 µM
- Tmax [11]: 4 h
- IC50 [12]: > 100 µM
- clearance [13]: 83.3 mL/min/kg
- Vz [14]: 126.6 L/kg
- Activity [15]: Non-toxic
- IC50 (Cytochrome P450 2C19): 4.63 µM
- AUC(0-t) [16]: 399 ng·h/mL
- AUC(0-t) [17]: 339 ng·h/mL
- Activity [18]: Non-toxic
- MRT inf [19]: 0.76 h
- Cmax [20]: 58.4 ng/mL
- IC50 (Cytochrome P450 3A4): > 50 µM
- IC50 [21]: 3.38 µM
- MRT last [22]: 0.75 h
- AUC(0-inf) [23]: 399 ng·h/mL
- IC50 [24]: > 30 µM
- Activity (Rattus norvegicus [25]): Active
- Activity (Rattus norvegicus [26]): inactive
- MRT inf [27]: 6.4 h
- IC50 [28]: 0.003 µM
- CL/F [29]: 525 mL/min/kg
- bioavailability [30]: 16.8%
- half-life [31]: 2.79 h
- IC50 [32]: > 100 µM
- Activity (Rattus norvegicus [33]): Active
- MRT last [34]: 6.3 h
- IC50 (Cytochrome P450 2D6): > 50 µM
- IC50 (Cytochrome P450 1A2): > 50 µM
- IC50 (Cytochrome P450 2C9): 9.76 µM
- AUC(0-inf) [35]: 340 ng·h/mL
- IC50 [36]: 53.3 µM
- Activity (Rattus norvegicus [37]): Active; The Effect Was Marginally Superior To That Of Sildenafil
- half-life [38]: 4.41 min

SMILES: Cc1ccc(-c2c(C#N)c(=O)n(Cc3ccccc3)c3c(NCc4ccccc4)cccc23)cc1
- IC50 [28]: 0.02 µM

SMILES: Cc1ccc(-c2c(C#N)c(=O)n(Cc3ccccc3)c3cc(NC(C)c4ccccn4)ccc23)cc1 (stereo unspecified)
- IC50 [28]: 0.578 µM

SMILES: Cc1ccc(-c2c(C#N)c(=O)n(Cc3ccccc3)c3ccc(NC(C)c4ccccn4)cc23)cc1 (stereo unspecified)
- IC50 [28]: 0.291 µM

SMILES: COc1ccc(Cn2c(=O)c(C#N)c(-c3ccc(C)cc3)c3cccc(NC(C)c4ccccn4)c32)cc1Cl (stereo unspecified)
- inhibition [39]: 12%

Continued, values first:

- IC50 [28]: 0.02 µM
SMILES: Cc1ccc(-c2c(C#N)c(=O)n(Cc3ccccc3)c3c(NCc4ccccn4)cccc23)cc1

- inhibition [39]: 5%
SMILES: Cc1ccc(-c2c(C#N)c(=O)n(Cc3ccc(F)cc3)c3c(NC(C)c4ccccn4)cccc23)cc1 (stereo unspecified)

- inhibition [39]: 14%
SMILES: CC(Nc1cccc2c(C3CCCC3)c(C#N)c(=O)n(Cc3ccccc3)c12)c1ccccn1 (stereo unspecified)

- IC50 [28]: 0.03 µM
SMILES: CCCCNc1cccc2c(-c3ccc(C)cc3)c(C#N)c(=O)n(Cc3ccccc3)c12
